Test results reported in patent publication US7576113B2, “Use of (E)-5-(4-chlorbenzyliden)-2,2-dimethyl-1-(1H-1,2,4-triazol-1-ylmethyl) cyclopentanol for combating rust attacks on soya plants” (BASF Aktiengesellschaft, priority 2004, dated 2009).

How the values were obtained:
Format in all cases: in vivo
Phakopsora pachyrhizi [1] = assay: Curative treatment of diseased soybean plants, field experiments
Protocol: In field experiments, different varieties of soybean plants whose leaves were already infested with Phakopsora pachyrhizi were treated with an aqueous triticonazole preparation using equipment conventionally used under practice conditions. The application rates were from 20 to 200 g/ha. 25 days after the treatment, the disease level on the untreated, but infested, leaves had developed to such an extent that it covered 50% of the leaf area. In the treated plants, in contrast, Phakopsora pachyrhizi disease had only reached a maximum of 25%.

Phakopsora pachyrhizi [2] = assay: Protective treatment of soybean plants, field experiments
Protocol: In field experiments, different varieties of soybean plants were treated with an aqueous triticonazole preparation. The application rates amounted to 20 to 200 g/ha. Thereafter, the plants were inoculated with Phakopsora pachyrhizi. 25 days after the treatment, the disease level on the untreated, but infested, leaves had developed to such an extent that it covered 50% of the leaf area. In the treated plants, in contrast, Phakopsora pachyrhizi disease had only reached a maximum of 25%.

Phakopsora pachyrhizi [3] = assay: Seed treatment of soybean c.v. Embrapa 48, rust disease of leaf areas; settings: seed treatment 12.5, 25, 50, 100 and 250 g per 100 kg of seed, all cases, after 50 days; untreated at least 50%
Protocol: Seed of soybean plants c.v. “Embrapa 48” were treated with a composition suitable for seed treatment, comprising triticonazole as active substance, at application rates in the range of from 12.5 g, 25 g, 50 g, 100 g and 250 g of triticonazole per 100 kg of seed. Thereafter, the seed was sown. The soybean plants thus grown were then inoculated with Phakopsora pachyrhizi. After 50 days, the level of rust disease of the leaf areas was determined. The disease level in the plants from untreated seed was at least 50%, whereas the disease level of the leaf area in plants from treated seed was less than 25% in all cases.

Phakopsora pachyrhizi [4] = assay: Protective activity against soybean rust via seed treatment, field experiment in Brazil; settings: cultivar IAC 8.2, 60 DAT, untreated 40
Protocol: A defined amound of a commercial ready-to-used formulation of Triticonazole (suspension concentrate, concentration of active ingredient 200 g/l), corresponding to the desired application (a.r.) rate of 5, 15, 30 und 50 g ai/100 kg soybean was diluted with water to a total volume of 1 Ltr./100 kg Soybean.
Soybean seeds of the cultivar “IAC 8.2” were treated in a commercial device for dressing seeds with the thus prepared aqueous suspension of triticonazole and then seeded in a field experiment in Brazil. The leaves of the soybean plants thus grown were inoculated at an appropriate growing stage with a spore suspension of soybean rust (Phakopsora pachyrhizi). Thereafter the plants were kept wet for 6-8 h overnight by means of a finely dripping sprinkling device. During this time the spores germinated and their germ tubes penetrated into the leaf tissue. 60 days after treatment (60 DAT) or seeding, respectively, the extent of rust formation on the leaves of the infected plants was determinated.

Phakopsora pachyrhizi [5] = assay: Curative activity against soybean rust via spray application, potted seedlings in greenhouse; settings: 3 days after inoculation, cultivar Hutcheson, untreated 80
Protocol: A commercial ready-to-used formulation of Triticonazole (suspension concentrate, concentration of active ingredient 200 g/l) was diluted with water to the active ingredient concentraten (act.conc.) given in Table 2.
Leaves of potted soybean seedlings of the cultivar “Hutcheson” were inoculated with a suspension of spores of soybean rust (Phakopsora pachyrhizi). The pots were placed in a chamber with high atmospheric humidity (90 to 95%) at 22 to 24° C. for 24 hours. During this time, the spores germinated and the germ tubes penetrated into the leaf tissue. After 3 days, the infected plants were sprayed to runoff point with an aqueous suspension having the concentration of active compound as given in table 2. The suspensions or emulsions were prepared as described above. After the spray coating was dry, the test plants were cultivated in a greenhouse at temperatures between 22 and 24° C. and at 90% relative humidity for 17 days. The extent of the rust development on the leaves was then determined.

Structure (SMILES): CC1(C)CC/C(=C\c2ccc(Cl)cc2)C1(O)Cn1cncn1 (centres unmarked) [triticonazole, (E)-5-(4-chlorobenzylidene)-2,2-dimethyl-1-(1H-1,2,4-triazol-1-ylmethyl)cyclopentanol]
- yield in comparison with the untreated control (Phakopsora pachyrhizi [1]; 20 to 200 g/ha, field): markedly improved
- Phakopsora pachyrhizi disease level (leaf area covered) (Phakopsora pachyrhizi [1]; aqueous preparation 20 to 200 g/ha, 25 days after treatment, different soybean varieties, untreated 50%): ≤ 25%
- yield in comparison with the untreated control (Phakopsora pachyrhizi [2]; 20 to 200 g/ha, field): markedly improved
- Phakopsora pachyrhizi disease level (leaf area covered) (Phakopsora pachyrhizi [2]; aqueous preparation 20 to 200 g/ha, inoculated after treatment, 25 days after treatment, untreated 50%): ≤ 25%
- disease level of the leaf area (Phakopsora pachyrhizi [3]): less than 25%
- % infected leaf area (60 DAT) (Phakopsora pachyrhizi [4]; seed treatment a.r. 5 g/100 kg): 23%
- % infected leaf area (60 DAT) (Phakopsora pachyrhizi [4]; seed treatment a.r. 15 g/100 kg): 11%
- % infected leaf area (60 DAT) (Phakopsora pachyrhizi [4]; seed treatment a.r. 30 g/100 kg): 9%
- % infected leaf area (60 DAT) (Phakopsora pachyrhizi [4]; seed treatment a.r. 50 g/100 kg): 3%
- % infected leaf area (17 DAT) (Phakopsora pachyrhizi [5]; spray act. conc. 1 ppm): 9%
- % infected leaf area (17 DAT) (Phakopsora pachyrhizi [5]; spray act. conc. 4 ppm): 1%
